“Also recorded” adds a separate entry of the source. Like-named read-outs stand apart in the source and are kept apart here.

The conditions of series [1]: toxic at concentrations above; cited from earlier work.
Series [2] has as its system cells derived from ovarian tumor tissue. The series is described as follows: Alamer Blue cellular respiration assay on cells derived from ovarian tumor tissue. Particulars: Homo sapiens. The class given is cell-based. The source says:
(§1) Excess tissue specimens obtained from a variety of organs and tissues such as colon, lung, kidney, stomach, and buttocks were obtained freshly at the time of surgery and samples were sent for pathological testing. For diagnosis and grading of tissue samples (ie: prior to processing), hematoxylin and eosin stained tissue sections were examined by a pathologist. If the diagnosis and grading of the tissue concurred with the determination made by the surgical pathologist that provided the tissue, then the tissue was used in the screen. If there was no agreement, then two additional pathologists served as referees. If no consensus was reached, then the tissue was discarded. […]
(§2) After tissue processing, the relative purity of the resulting cell suspension was determined by cytological examination after pap staining. […]
(§3) Cell preparations that passed histological and cytological examination for diagnosis, grading, and cell purity were thawed at 37° C. and resuspended in tissue culture medium designed to maintain the cells during the incubation period. The live and dead cells were counted and the cells were diluted in culture medium to 4.0×10^4 live cells/ml for tumor cells and 1.32×10^5 live cells/ml for normal cells. […]
(§4) The kinetics of cellular re-dox reactions were subsequently measured at various times, for example at 3 hours, 3 days, and 5 days post-dye addition. […]

Series [3] relates to cells isolated from sarcoma patients. The series is described as follows: Alamer Blue cellular respiration assay on cells isolated from sarcoma patients. In kind it is cell-based. Particulars: Homo sapiens.
Source text: as §1, §2, §3, §4

The conditions of series [4]: in vivo; cited from earlier work.
The next series relates to patient tumor cells. The series is described as follows: Comparison of cardiac glycosides in the anti-tumor assays. In kind it is cell-based, human. Particulars: cardiac glycosides tested. The procedure: Alamer Blue (Accumed International, Westlake Ohio) was then added to the cells at 1/10 the volume of the well, and the cells were further incubated at 37° C. for various times. Alamer Blue dye measures cellular re-dox reactions (ie: cellular respiration) whereby a spectral shift occurs upon reduction of the dye. (Excitation 530 nm; emission 590 nm)
The kinetics of cellular re-dox reactions were subsequently measured at various times, for example at 3 hours, 3 days, and 5 days post-dye addition.

Setting [5] is: range over samples, read-out: IC50 (range).

The IC50 is the concentration needed to halve the response being measured. On to `CC1OC(OC2C(O)CC(O[C@H]3CC[C@]4(C)C5CC[C@]6(C)[C@@H](C7=CC(=O)OC7)CC[C@]6(O)[C@@H]5CC[C@@H]4C3)O[C@@H]2C)C[C@H](O)[C@@H]1OC1CC(O)C(O)[C@@H](C)O1` (some centres unmarked) [digitoxin], for which, in series [1], the toxic concentration entry is “above 35 ng/ml; also recorded: approximately 46 nM”. Moreover, the half-maximal inhibitory concentration (IC50) is 47 nM in series [2] (mean, read-out: IC50 (mean)); 31 to 126 nM in series [2] (setting [5]); 25 nM in series [3] (mean, read-out: IC50 (mean)); 13 to 48 nM in series [3] (setting [5]). Further, the “bound to plasma proteins” value in series [4] was “greater than 95%”.
For the molecule `C[C@H]1O[C@@H](O[C@H]2[C@@H](O)C[C@H](O[C@H]3[C@@H](O)C[C@H](O[C@H]4CC[C@@]5(C)[C@H](CC[C@@H]6[C@@H]5C[C@@H](O)[C@]5(C)[C@@H](C7=CC(=O)OC7)CC[C@]65O)C4)O[C@@H]3C)O[C@@H]2C)C[C@H](O)[C@@H]1O` [digoxin], the “activity in the assays compared with digitoxin” value with patient tumor cells is “Digitoxin appeared more active in the assays then digoxin”.
As for `C[C@@H]1O[C@@H](O[C@H]2C[C@@H](O)[C@]3(CO)[C@H]4[C@H](O)C[C@]5(C)[C@@H](C6=CC(=O)OC6)CC[C@]5(O)[C@@H]4CC[C@]3(O)C2)[C@H](O)[C@H](O)[C@H]1O` [oubain], in the series with patient tumor cells, the “activity in the assays compared with digitoxin” value was “equally active”.

Source of the values: US6380167B1, “Methods for anti-tumor therapy” (priority 1999, dated 2002).
